Reference: patent US10183009B2, “Therapeutic compounds and uses thereof” (GENENTECH, INC., priority 2014, dated 2019)

The compounds below were run against BRD9 (Homo sapiens (Human), UniProt Q9H8M2) (assay: BRD9 AlphaLisa Binding Assay).
Method: After 20 minutes incubation at room temperature AlphaLisa Streptavidin Acceptor Beads (Perkin-A[…]) and AlphaLisa Nickel donor beads (Perkin AS 10 ID) were added to a final concentration of 15 ug/mL each.

BRD9, sequence (Q9H8M2 134-239 limits assumed): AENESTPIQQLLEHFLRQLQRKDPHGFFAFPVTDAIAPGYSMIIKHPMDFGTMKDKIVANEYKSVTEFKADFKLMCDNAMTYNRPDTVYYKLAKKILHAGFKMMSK

Row | IC50 | SMILES
1 | 34 nM | C/C=C/Cn1cc(-c2ccc(C(=O)N3CCOCC3)c(F)c2F)c2cc(C)[nH]c2c1=O [Example 93, 6-[(E)-but-2-enyl]-4-[2,3-difluoro-4-(morpholine-4-carbonyl)phenyl]-2-methyl-1H-pyrrolo[2,3-c]pyridin-7-one]
2 | 6 nM | C/C=C/Cn1cc(-c2cc(C(=O)NCc3cnccn3)ccc2OC)c2cc(C)[nH]c2c1=O [Example 109, 3-[6-[(E)-but-2-enyl]-2-methyl-7-oxo-1H-pyrrolo[2,3-c]pyridin-4-yl]-4-methoxy-N-(pyrazin-2-ylmethyl)benzamide]
3 | 320 nM | CC(C)CCn1cc(-c2cccc(C(=O)N(C)C)c2)c2cc[nH]c2c1=O [Example 10, 3-(6-isopentyl-7-oxo-1H-pyrrolo[2,3-c]pyridin-4-yl)-N,N-dimethyl-benzamide]
4 | 39 nM | C/C=C/Cn1cc(-c2cc(C(=O)N3CCCC3)ccc2OC)c2cc[nH]c2c1=O [Example 68, 6-[(E)-but-2-enyl]-4-[2-methoxy-5-(pyrrolidine-1-carbonyl)phenyl]-1H-pyrrolo[2,3-c]pyridin-7-one]
5 | 32 nM | C/C=C/Cn1cc(-c2cnc(C(=O)N3CCOCC3)c(Cl)c2)c2cc(C)[nH]c2c1=O [Example 98, 6-[(E)-but-2-enyl]-4-[5-chloro-6-(morpholine-4-carbonyl)-3-pyridyl]-2-methyl-1H-pyrrolo[2,3-c]pyridin-7-one]
6 | 9 nM | C/C=C/Cn1cc(-c2ccc(C(=O)N3CC(n4ccc(N)n4)C3)cc2)c2cc(C)[nH]c2c1=O [Example 118, 4-[4-[3-(3-aminopyrazol-1-yl)azetidine-1-carbonyl]phenyl]-6-[(E)-but-2-enyl]-2-methyl-1H-pyrrolo[2,3-c]pyridin-7-one]
7 | 13 nM | C/C=C/Cn1cc(-c2ccc(C(=O)N3CCCC3)cc2)c2cc(C)[nH]c2c1=O [Example 91, 6-[(E)-but-2-enyl]-2-methyl-4-[4-(pyrrolidine-1-carbonyl)phenyl]-1H-pyrrolo[2,3-c]pyridin-7-one]
8 | 180 nM | CCCCn1cc(-c2ncc(C(=O)N3CCN(C)CC3)cc2OC)c2cc(C)[nH]c2c1=O [Example 122, 6-butyl-4-[3-methoxy-5-(4-methylpiperazine-1-carbonyl)-2-pyridyl]-2-methyl-1H-pyrrolo[2,3-c]pyridin-7-one]
9 | 5 nM | C/C=C/Cn1cc(-c2ccc(C(=O)N3CC(n4ccc(N)n4)C3)c(Cl)c2)c2cc(C)[nH]c2c1=O [Example 117, (E)-4-(4-(3-(3-amino-1H-pyrazol-1-yl)azetidine-1-carbonyl)-3-chlorophenyl)-6-(but-2-en-1-yl)-2-methyl-1H-pyrrolo[2,3-c]pyridin-7(6H)-one]
10 | 73 nM | CCCCn1cc(-c2ccc(C(C)(C)O)cc2OC)c2cc[nH]c2c1=O [Example 80, 6-butyl-4-[4-(1-hydroxy-1-methyl-ethyl)-2-methoxy-phenyl]-1H-pyrrolo[2,3-c]pyridin-7-one]
11 | 3 nM | C/C=C/Cn1cc(-c2ccc(C(=O)N3CCOCC3)c(OC(C)C)c2)c2cc(C)[nH]c2c1=O [Example 114, 6-[(E)-but-2-enyl]-4-[3-isopropoxy-4-(morpholine-4-carbonyl)phenyl]-2-methyl-1H-pyrrolo[2,3-c]pyridin-7-one]
12 | 46 nM | C/C=C/Cn1cc(-c2ccc(C(=O)N3CCCC3)c(Cl)c2)c2cc[nH]c2c1=O [Example 52, 6-[(E)-but-2-enyl]-4-[3-chloro-4-(pyrrolidine-1-carbonyl)phenyl]-1H-pyrrolo[2,3-c]pyridin-7-one]
13 | 56 nM | C/C=C/Cn1cc(-c2cc(C(=O)N(C)C)ccc2OC)c2cc[nH]c2c1=O [Example 64, 3-[6-[(E)-but-2-enyl]-7-oxo-1H-pyrrolo[2,3-c]pyridin-4-yl]-4-methoxy-N,N-dimethyl-benzamide]
14 | 46 nM | C/C=C/Cn1cc(-c2ncc(C(=O)N3CCOCC3)cc2OC)c2cc(C)[nH]c2c1=O [Example 103, 6-[(E)-but-2-enyl]-4-[3-methoxy-5-(morpholine-4-carbonyl)-2-pyridyl]-2-methyl-1H-pyrrolo[2,3-c]pyridin-7-one]
15 | 29 nM | C/C=C/Cn1cc(-c2ccc(C(=O)NC)cc2)c2cc[nH]c2c1=O [Example 24, 4-[6-[(E)-but-2-enyl]-7-oxo-1H-pyrrolo[2,3-c]pyridin-4-yl]-N-methyl-benzamide]
16 | 43 nM | CCCCn1cc(-c2ccc(C(C)(C)O)cc2)c2cc[nH]c2c1=O [Example 82, 6-butyl-4-[4-(1-hydroxy-1-methyl-ethyl)phenyl]-1H-pyrrolo[2,3-c]pyridin-7-one]
17 | 66 nM | CCCCn1cc(-c2cc(C(=O)N(C)C)ccc2OC)c2cc(C)[nH]c2c1=O [Example 87, 3-(6-butyl-2-methyl-7-oxo-1H-pyrrolo[2,3-c]pyridin-4-yl)-4-methoxy-N,N-dimethyl-benzamide]
18 | 5 nM | C/C=C/Cn1cc(-c2ccc(C(=O)N3CCOCC3)c(OCC3CC3)c2)c2cc(C)[nH]c2c1=O [Example 115, 6-[(E)-but-2-enyl]-4-[3-(cyclopropylmethoxy)-4-(morpholine-4-carbonyl)phenyl]-2-methyl-1H-pyrrolo[2,3-c]pyridin-7-one]

Row | IC50 | SMILES
19 | 65 nM | CCCCn1cc(-c2cc(C(=O)N3CC4(CN(C(C)=O)C4)C3)ccc2OC)c2cc[nH]c2c1=O [Example 78, 4-[5-(2-acetyl-2,6-diazaspiro[3.3]heptane-6-carbonyl)-2-methoxy-phenyl]-6-butyl-1H-pyrrolo[2,3-c]pyridin-7-one]
20 | 28 nM | C/C=C/Cn1cc(-c2cc(C(=O)NCC(C)C)ccc2OC)c2cc[nH]c2c1=O [Example 70, 3-[6-[(E)-but-2-enyl]-7-oxo-1H-pyrrolo[2,3-c]pyridin-4-yl]-N-isobutyl-4-methoxy-benzamide]
21 | 12 nM | C=CCn1cc(-c2ccc(C(=O)N3CCOCC3)c(Cl)c2)c2cc(C)[nH]c2c1=O [Example 101, 6-allyl-4-[3-chloro-4-(morpholine-4-carbonyl)phenyl]-2-methyl-1H-pyrrolo[2,3-c]pyridin-7-one]
22 | 10 nM | C/C=C/Cn1cc(-c2ccc(C(=O)N3CCCC3)c(Cl)c2)c2cc(C)[nH]c2c1=O [Example 92, 6-[(E)-but-2-enyl]-4-[3-chloro-4-(pyrrolidine-1-carbonyl)phenyl]-2-methyl-1H-pyrrolo[2,3-c]pyridin-7-one]
23 | 510 nM | C/C=C/Cn1cc(-c2cccc(C(N)=O)c2)c2cc[nH]c2c1=O [Example 30, 3-[6-[(E)-but-2-enyl]-7-oxo-1H-pyrrolo[2,3-c]pyridin-4-yl]benzamide]
24 | 94 nM | C/C=C/Cn1cc(-c2cc(F)cc(C(=O)N(C)C)c2)c2cc[nH]c2c1=O [Example 19, 3-[6-[(E)-but-2-enyl]-7-oxo-1H-pyrrolo[2,3-c]pyridin-4-yl]-5-fluoro-N,N-dimethyl-benzamide]
25 | 130 nM | C/C=C/Cn1cc(-c2cc(C(=O)N(C)C)ccc2F)c2cc[nH]c2c1=O [Example 41, 3-[6-[(E)-but-2-enyl]-7-oxo-1H-pyrrolo[2,3-c]pyridin-4-yl]-4-fluoro-N,N-dimethyl-benzamide]
26 | 17 nM | CCCCn1cc(-c2cc(OC)c(C(=O)N3CCOCC3)cc2OC)c2cc(C)[nH]c2c1=O [Example 121, 6-butyl-4-[2,5-dimethoxy-4-(morpholine-4-carbonyl)phenyl]-2-methyl-1H-pyrrolo[2,3-c]pyridin-7-one]
27 | 22 nM | C/C=C/Cn1cc(-c2ccc(NS(C)(=O)=O)cc2)c2cc[nH]c2c1=O [Example 34, N-[4-[6-[(E)-but-2-enyl]-7-oxo-1H-pyrrolo[2,3-c]pyridin-4-yl]phenyl]methanesulfonamide]
28 | 100 nM | C/C=C/Cn1cc(-c2ccc(C(C)(C)O)cc2OC)c2cc(C)[nH]c2c1=O [Example 107, 6-[(E)-but-2-enyl]-4-[4-(1-hydroxy-1-methyl-ethyl)-2-methoxy-phenyl]-2-methyl-1H-pyrrolo[2,3-c]pyridin-7-one]
29 | 3 nM | C/C=C/Cn1cc(-c2cc(C(=O)NCc3cncnc3)ccc2OC)c2cc(C)[nH]c2c1=O [Example 120, 3-[6-[(E)-but-2-enyl]-2-methyl-7-oxo-1H-pyrrolo[2,3-c]pyridin-4-yl]-4-methoxy-N-(pyrimidin-5-ylmethyl)benzamide]
30 | 8 nM | C/C=C/Cn1cc(-c2ccc(C(=O)N3CCC(C(=O)O)CC3)c(Cl)c2)c2cc(C)[nH]c2c1=O [Example 112, 1-[4-[6-[(E)-but-2-enyl]-2-methyl-7-oxo-1H-pyrrolo[2,3-c]pyridin-4-yl]-2-chloro-benzoyl]piperidine-4-carboxylic acid]
31 | 4 nM | C/C=C/Cn1cc(-c2ccc(C(=O)N3CCNCC3)c(Cl)c2)c2cc(C)[nH]c2c1=O [Example 116, (E)-6-(but-2-en-1-yl)-4-(3-chloro-4-(piperazine-1-carbonyl)phenyl)-2-methyl-1H-pyrrolo[2,3-c]pyridin-7(6H)-one]
32 | 13 nM | C/C=C/Cn1cc(-c2ccc(C(=O)N3CCOCC3)c(Cl)c2)c2cc[nH]c2c1=O [Example 51, 6-[(E)-but-2-enyl]-4-[3-chloro-4-(morpholine-4-carbonyl)phenyl]-1H-pyrrolo[2,3-c]pyridin-7-one]
33 | 300 nM | COc1ccc(C(=O)N(C)C)cc1-c1cn(CCC2CC2)c(=O)c2[nH]c(C)cc12 [Example 88, 3-[6-(2-cyclopropylethyl)-2-methyl-7-oxo-1H-pyrrolo[2,3-c]pyridin-4-yl]-4-methoxy-N,N-dimethyl-benzamide]
34 | 39 nM | C/C=C/Cn1cc(-c2ncc(C(=O)N3CCN(C)CC3)cc2OC)c2cc(C)[nH]c2c1=O [Example 110, 6-[(E)-but-2-enyl]-4-[3-methoxy-5-(4-methylpiperazine-1-carbonyl)-2-pyridyl]-2-methyl-1H-pyrrolo[2,3-c]pyridin-7-one]
35 | 35 nM | C/C=C/Cn1cc(-c2cc(C(=O)NC)ccc2OC)c2cc[nH]c2c1=O [Example 67, 3-[6-[(E)-but-2-enyl]-7-oxo-1H-pyrrolo[2,3-c]pyridin-4-yl]-4-methoxy-N-methyl-benzamide]
36 | 22 nM | C/C=C/Cn1cc(-c2cc(Cl)c(C(=O)N3CCOCC3)cn2)c2cc(C)[nH]c2c1=O [Example 104, 6-[(E)-but-2-enyl]-4-[4-chloro-5-(morpholine-4-carbonyl)-2-pyridyl]-2-methyl-1H-pyrrolo[2,3-c]pyridin-7-one]
